Measurements taken from paper PMC8018465, “Antimicrobial activities of a small molecule compound II-6s against oral streptococci” (Journal of Oral Microbiology, 2021).

Tests used:
[1] = system: S. mutans/S. gordonii/S. sanguinis 3-species biofilms; assay: 3-species biofilm imaging (EPS, dead/live, FISH) and quantitative PCR; format: cell-based
Experimental: To form 3-species biofilms, bacterial suspensions were mixed to obtain an inoculum consisting of S. mutans, S. gordonii, and S. sanguinis (1 × 10^5 CFU/ml for each strain, inoculum ratio = 1:1:1) in BHIS broth as described previously. The inoculum (250 μl) was added into the chemotaxis chamber (μ-slide 8well, 80,826; Ibidi) and incubated for 24 h. After the multispecies biofilms were formed, they were treated with different concentrations of II-6s, CHX and PBS for 5 days (5 min, three times per day).
For EPS staining, 2.5 μM Alexa Fluor 647-labeled dextran conjugate (Molecular Probes) was added to the culture medium from the beginning of the biofilm formation, and the bacteria were stained with 2.5 μM SYTO 9 (Molecular Probes, Invitrogen) for 15 min after biofilms formed. The biofilms were imaged with a DMIRE2 confocal laser scanning microscope (Leica, Wetzlar, Germany) equipped with a 60 × oil immersion lens.
For dead/live imaging, multispecies biofilms were stained with the Live/Dead BacLight Bacterial Viability Kit (Molecular Probes, Invitrogen), and the reagents were applied to the biofilms at final concentrations of 2.5 μM SYTO 9 and 2.5 μM propidium iodide for 15 min. Live/Dead staining is a measure of membrane damage since SYTO 9 penetrates intact cytoplasmic membranes, while propidium iodide is only able to penetrate damaged membranes. The dyed biofilms were imaged with a Leica DMIRE2 confocal laser scanning microscope as in EPS staining.
For fluorescent in situ hybridization imaging, biofilms were fixed in 4% paraformaldehyde overnight and investigated by species-specific probes (Table S1) as described previously [[30–32]]. In brief, prehybridization (15 min, 46°C) was performed in 250 μl hybridization buffer with 20% formamide in the absence of any oligonucleotide probes. The incubation time for the hybridization was almost 90 min at 46°C in the dark. After the incubation, biofilms were transferred into washing buffer preheated to 48°C and incubated for 15 min at this temperature. After staining, the biofilms were imaged with a Leica DMIRE2 confocal laser scanning microscope as in EPS staining.
Each biofilm was scanned at five randomly selected positions and the experiments were performed in triplicates on three independent occasions. All three-dimensional reconstructions of the biofilms were processed with Imaris, version 7.2.3 (Bitplane, Zürich, Switzerland), and the quantification of fluorescence levels was performed with ImageJ (with the plugin COMSTAT) (National Institutes of Health, Bethesda, MD).
Total DNA of biofilms was isolated and purified using a TIANamp Bacteria DNA kit (Tiangen, Beijing, China). The bacteria were lysed using enzymatic lysis buffer (20 mM Tris-HCl, pH 8.0, 2 mM sodium EDTA, and 1.2% Triton X-100) containing 25 mg/ml of lysozyme at 37°C for 1.5 h. The purity and concentration of DNA were determined by a NanoDrop 2000 spectrophotometer (Thermo Scientific, Waltham, MA, USA). The extracts were placed at −20°C before use. TaqMan real-time PCR (Life Technologies, Carlsbad, CA, USA) was applied to quantify the absolute number of S. mutans, S. gordonii and S. sanguinis as described by the manufacturer (TaKaRa, Dalian, China). The sequences of primers (Table S2) were in accordance with previous studies. The standard curves of these bacteria were plotted using cycle values of DNA, which stands for corresponding concentrations of bacteria from 1 × 10^8 CFU/ml to 1 × 10^4 CFU/ml (Figure S1). The number of each strain within 3-species biofilms was calculated based on standard curves. The experiment was conducted in triplicates and repeated three times.

[2] = system: 3-species streptococcal biofilms on bovine enamel slabs; assay: Transverse microradiography of biofilm-induced demineralization on bovine enamel slabs; format: cell-based; settings: for biofilm-induced demineralization of enamel slabs (lesion depth, mineral loss): vs PBS control, 5 days, 5 min three times per day
Source text: The labial dental crown of bovine incisors was cut into 5 mm × 5 mm × 4 mm by a diamond-coated band saw with continuous water cooling (Struers Minitom; Struers, Copenhagen, Denmark). These bovine specimens were embedded in polymethylmethacrylate and labial enamel surfaces were ground flat with water-cooled carborundum discs of waterproof silicon carbide paper (Struers) of various grits (1,000, 1,200, 2,400, 3,000 and 4,000). Then, enamel blocks were painted with two layers of acid-resistant nail varnish, leaving a 4 × 4 mm window exposed on the labial enamel surface. These specimens were measured by the […] hardness test (Zwick, Ulm, Germany) and those in the range from 314.6 to 382.4 Knoop Hardness Numbers were selected for the demineralization assessment. All the polished samples were sonicated in distilled water for 5 min to remove the residual abrasives and sterilized in an ethylene oxide sterilizer (AnproleneAN 74i, Andersen, Haw River, NC, USA).
An amount of 2 ml bacterial suspension solution contained S. mutans, S. gordonii and S. sanguinis (1 × 10^7 CFU/ml for each bacterium) was added to each well of a 12-well plate with a bovine sample, which was cultured anaerobically in a BHIS medium at 37°C (5% CO2) for 24 h. The specimens were treated with PBS, 0.2% of CHX or different concentrations of II-6s (15.63 to 125 μg/ml) for 5 days (5 min, three times per day). The pH of all experimental solutions was adjusted to 7.0 before treatment. All specimens were washed with PBS and refreshed with BHIS after every exposure. After 5 days of incubation, samples were rinsed with distilled water to remove the remaining biofilms, then cut again and polished with waterproof silicon carbide abrasive papers (800–4,000 grit; Struers, Copenhagen, Denmark) to a thickness around 100 μm. […] Quantitative data of mineral loss and lesion depth were acquired by a calibrated analysis system TMR2006 (Inspektor Research Systems BV, Netherlands). […]

[3] = 5 days, 5 min three times per day

| SMILES | EPS/bacteria ratio of the biofilms [1, 3] | biofilm-induced demineralization of enamel slabs (lesion depth, mineral loss) [2] | microbial composition within 3-species biofilms (FISH, quantitative PCR) [1, 3] | dead/live bacteria ratio of biofilm ([1]; II-6s 125 μg/ml, vs 0.2% of CHX) | dead/live bacteria ratio of biofilms ([1]; II-6s 31.25 to 125 μg/ml, vs non-treated control) | reduction of bacterial biomass and EPS production ([1]; II-6s 31.25 to 125 μg/ml, 5 days, 5 min three times per day) | inhibitory effect on biofilm-induced demineralization ([2]; II-6s 31.25 to 125 μg/ml, vs 0.2% of CHX) |
| --- | --- | --- | --- | --- | --- | --- | --- |
| [H]/N=C(\N/C(=N/[H])NCCCCCCNC(=N)NC(=N)Nc1ccc(Cl)cc1)Nc1ccc(Cl)cc1 [CHX, Chlorhexidine digluconate, reference compound] | neither II-6s nor CHX treatment altered the EPS/bacteria ratio | significantly reduced the demineralization | – | – | – | – | – |
| CC(C)(Cc1ccc2ccccc2c1)NC[C@H](O)CNc1cc(C(F)(F)F)cc(C(F)(F)F)c1 [II-6s, (S)-1-((3,5-bis(trifluoromethyl)phenyl)amino)-3-((2-methyl-1-(naphthalen-2-yl)propan-2-yl)amino)propan-2-ol] | neither II-6s nor CHX treatment altered the EPS/bacteria ratio | significantly reduced the demineralization | effectively reduced the total biomass of streptococci but did not specifically reduce the cariogenic S. mutans | even higher than that treated with 0.2% of CHX | significantly higher than that of the non-treated control | equivalent ability to reduce bacterial biomass and EPS production as compared to 0.2% of CHX | equivalent inhibitory effect on the biofilm-induced demineralization as compared to 0.2% of CHX |
